Laboratory results as given in patent US20060252807A1, “Novel ortho-terphenyl inhibitors of p38 kinase and methods of treating inflammatory disorders” (Kalypsys, Inc., priority 2005, published 2006).

Biological target: T1, active p38 alpha enzyme (Upstate Biotechnology) (Homo sapiens, UniProt Q16539)
T1 construct: purchased Upstate Biotechnology
Assay: p38α biochemical assay (ATP turnover, luminescent detection, Cambrex PKlight)
Settings: p38α kinase; Table 1 Biological Activity
How it was run: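 In this kinase reaction, p38α used MapkapK2 as phosphorylation substrate at low ATP (1.4 uM final) over 2 hours at 30C, and activity was followed as ATP turnover by luminescence.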

T1 sequence (Q16539 whole entry): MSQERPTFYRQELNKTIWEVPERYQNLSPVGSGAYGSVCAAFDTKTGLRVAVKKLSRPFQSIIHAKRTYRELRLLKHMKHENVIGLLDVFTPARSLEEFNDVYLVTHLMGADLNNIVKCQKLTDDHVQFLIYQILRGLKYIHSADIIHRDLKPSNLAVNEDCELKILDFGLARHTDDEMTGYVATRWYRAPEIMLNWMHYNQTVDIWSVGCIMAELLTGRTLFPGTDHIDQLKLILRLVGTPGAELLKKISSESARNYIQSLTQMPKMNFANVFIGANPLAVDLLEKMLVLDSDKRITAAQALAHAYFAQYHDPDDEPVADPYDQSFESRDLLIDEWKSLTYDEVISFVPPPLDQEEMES

SMILES | IC50 [nM]
CC(C)NC(=O)c1csc(-c2c(-c3ccc(F)cc3)n[nH]c2C2CCN(C(=O)/C=C/c3ccccc3C(F)(F)F)CC2)n1 [Example 1010] | > 1000
CCOc1ccc2ccccc2c1C(=O)N1CCC(c2[nH]nc(-c3ccc(F)cc3)c2-c2nc(C(=O)NC(C)C)cs2)CC1 [Example 1011] | > 1000
CC(C)NC(=O)c1csc(-c2c(-c3ccc(F)cc3)n[nH]c2C2CCN(C(=O)C(NC(=O)OC(C)(C)C)C(C)C)CC2)n1 (stereo not drawn) [Example 1012] | > 1000
CC(C)NC(=O)c1csc(-c2c(-c3ccc(F)cc3)n[nH]c2C2CCN(C(=O)C(NC(=O)OC(C)(C)C)C(C)C)CC2)n1 (stereo not drawn) [Example 1013] | > 1000
CC(C)NC(=O)c1csc(-c2c(-c3ccc(F)cc3)n[nH]c2C2CCN(C(=O)CCc3cccc(C(F)(F)F)c3)CC2)n1 [Example 1014] | > 1000
CC1=NN(c2ccc(C(=O)N3CCC(c4[nH]nc(-c5ccc(F)cc5)c4-c4nc(C(=O)NC(C)C)cs4)CC3)cc2)C(=O)C1 [Example 1015] | > 1000
Cc1nc(Br)sc1C(=O)N1CCC(c2[nH]nc(-c3ccc(F)cc3)c2-c2nc(C(=O)NC(C)C)cs2)CC1 [Example 1016] | > 1000
CC(C)NC(=O)c1csc(-c2c(-c3ccc(F)cc3)n[nH]c2C2CCN(C(=O)c3c4ccccc4cc4ccccc34)CC2)n1 [Example 1017] | > 1000
CC(C)NC(=O)c1csc(-c2c(-c3ccc(F)cc3)n[nH]c2C2CCN(C(=O)c3cc(C(C)C)cc(C(C)C)c3O)CC2)n1 [Example 1018] | > 1000
CC(=O)NC(Cc1ccc(O)cc1)C(=O)N1CCC(c2[nH]nc(-c3ccc(F)cc3)c2-c2nc(C(=O)NC(C)C)cs2)CC1 (stereo not drawn) [Example 1019] | > 1000
CC(C)NC(=O)c1csc(-c2c(-c3ccc(F)cc3)n[nH]c2C2CCN(C(=O)c3c(Cl)cc(Cl)cc3Cl)CC2)n1 [Example 1020] | > 1000
COc1cc(C(=O)N2CCC(c3[nH]nc(-c4ccc(F)cc4)c3-c3nc(C(=O)NC(C)C)cs3)CC2)c([N+](=O)[O-])cc1OC [Example 1021] | > 1000
CC(C)NC(=O)c1csc(-c2c(-c3ccc(F)cc3)n[nH]c2C2CCN(C(=O)c3ccc(OCc4ccccc4)cc3)CC2)n1 [Example 1022] | > 1000
CC(C)NC(=O)c1csc(-c2c(-c3ccc(F)cc3)n[nH]c2C2CCN(C(=O)CCc3ccccc3Br)CC2)n1 [Example 1023] | > 1000
CC(C)NC(=O)c1csc(-c2c(-c3ccc(F)cc3)n[nH]c2C2CCN(C(=O)CCc3cccc(Br)c3)CC2)n1 [Example 1024] | > 1000
CC(C)NC(=O)c1csc(-c2c(-c3ccc(F)cc3)n[nH]c2C2CCN(C(=O)C3CCCCN3C(=O)OC(C)(C)C)CC2)n1 (stereo not drawn) [Example 1025] | > 1000
CC(C)NC(=O)c1csc(-c2c(-c3ccc(F)cc3)n[nH]c2C2CCN(C(=O)c3ccc(Oc4cccc(O)c4)cc3)CC2)n1 [Example 1026] | > 1000
COc1ccc2cc(C(C)C(=O)N3CCC(c4[nH]nc(-c5ccc(F)cc5)c4-c4nc(C(=O)NC(C)C)cs4)CC3)ccc2c1 (stereo not drawn) [Example 1027] | > 1000
CC(C)NC(=O)c1csc(-c2c(-c3ccc(F)cc3)n[nH]c2C2CCN(C(=O)C3CN(C(=O)OC(C)(C)C)CCN3)CC2)n1 (stereo not drawn) [Example 1028] | > 1000
CC(C)NC(=O)c1csc(-c2c(-c3ccc(F)cc3)n[nH]c2C2CCN(C(=O)C3CN(C(=O)OC(C)(C)C)CCN3)CC2)n1 (stereo not drawn) [Example 1029] | ≤ 1000
COc1ccc(Br)c(C(=O)N2CCC(c3[nH]nc(-c4ccc(F)cc4)c3-c3nc(C(=O)NC(C)C)cs3)CC2)c1 [Example 1030] | > 1000
CC(C)NC(=O)c1csc(-c2c(-c3ccc(F)cc3)n[nH]c2C2CCN(C(=O)C3CC(O)CN3C(=O)OC(C)(C)C)CC2)n1 (stereo not drawn) [Example 1031] | ≤ 1000
CC(C)NC(=O)c1csc(-c2c(-c3ccc(F)cc3)n[nH]c2C2CCN(C(=O)C(C(C)C)N(C)C(=O)OC(C)(C)C)CC2)n1 (stereo not drawn) [Example 1032] | ≤ 1000
CC(C)NC(=O)c1csc(-c2c(-c3ccc(F)cc3)n[nH]c2C2CCN(C(=O)c3ccc(C(F)(F)F)cc3[N+](=O)[O-])CC2)n1 [Example 1033] | > 1000
